Activity calls are given as the source filed them. The rule behind the calls is not given here.
Tests used:
Format in all cases: functional, organism-based
Deroceras reticulatum [1] = assay: Molluscicidal activity against Deroceras reticulatum in Chinese cabbage at 0.8 g/m2 after 21 to 42 days by miniplot trial analysis in presence of 135 mm rainfall
Deroceras reticulatum [2] = assay: Molluscicidal activity against Deroceras reticulatum in Chinese cabbage at 0.8 g/m2 after 7 to 14 days by miniplot trial analysis in presence of 135 mm rainfall
Deroceras reticulatum [3] = assay: Molluscicidal activity against Deroceras reticulatum in Chinese cabbage at 0.8 g/m2 after 7 days by miniplot trial analysis in presence of 135 mm rainfall
Deroceras panormitanum = assay: Molluscicidal activity against Deroceras panormitanum assessed as reduction of slug number at 0.8 g/m2 after 42 days
Arion subfuscus [4] = assay: Molluscicidal activity against Arion subfuscus in Chinese cabbage at 0.8 g/m2 after 7 to 42 days
Arion subfuscus [5] = assay: Molluscicidal activity against Arion subfuscus assessed as reduction of slug number at 0.8 g/m2 after 42 days
Deroceras reticulatum [6] = assay: Molluscicidal activity against Deroceras reticulatum assessed as reduction of slug number at 0.8 g/m2 after 42 days
Deroceras reticulatum [7] = assay: Molluscicidal activity against Deroceras reticulatum in Chinese cabbage at 0.8 g/m2 after 7 to 42 days
Deroceras reticulatum [8] = assay: Molluscicidal activity against Deroceras reticulatum in Chinese cabbage at 0.8 g/m2 after 7 to 42 days by miniplot trial analysis in presence of 17 mm rainfall
Arion subfuscus [9] = assay: Molluscicidal activity against Arion subfuscus in Chinese cabbage at 0.8 g/m2 after 7 to 42 days by miniplot trial analysis in presence of 17 mm rainfall
Arion subfuscus [10] = assay: Molluscicidal activity against Arion subfuscus in Chinese cabbage at 0.8 g/m2 after 7 to 42 days by miniplot trial analysis in presence of 65.4 mm rainfall
Deroceras reticulatum [11] = assay: Molluscicidal activity against Deroceras reticulatum in Chinese cabbage at 0.8 g/m2 after 7 to 42 days by miniplot trial analysis in presence of 65.4 mm rainfall
Arion subfuscus [12] = assay: Molluscicidal activity against Arion subfuscus in Chinese cabbage at 0.8 g/m2 after 21 to 42 days by miniplot trial analysis in presence of 135 mm rainfall
Arion subfuscus [13] = assay: Molluscicidal activity against Arion subfuscus in Chinese cabbage at 0.8 g/m2 after 7 to 14 days by miniplot trial analysis in presence of 135 mm rainfall
Arion subfuscus [14] = assay: Molluscicidal activity against Arion subfuscus in Chinese cabbage at 0.8 g/m2 after 7 days by miniplot trial analysis in presence of 135 mm rainfall
Deroceras reticulatum [15] = assay: Molluscicidal activity against Deroceras reticulatum in Chinese cabbage at 0.8 g/m2 after 7 to 28 days by miniplot trial analysis in presence of 65.8 mm rainfall
Arion subfuscus [16] = assay: Molluscicidal activity against Arion subfuscus in Chinese cabbage at 0.8 g/m2 after 7 to 14 days by miniplot trial analysis in presence of 65.8 mm rainfall
Arion subfuscus [17] = assay: Molluscicidal activity against Arion subfuscus in Chinese cabbage at 0.8 g/m2 after 21 to 28 days by miniplot trial analysis in presence of 65.8 mm rainfall
Deroceras reticulatum [18] = assay: Molluscicidal activity against Deroceras reticulatum in Chinese cabbage at 5 g/m2 after 7 to 42 days by miniplot trial analysis in presence of 17 mm rainfall
Deroceras reticulatum [19] = assay: Molluscicidal activity against Deroceras reticulatum in Chinese cabbage at 5 g/m2 after 7 to 28 days by miniplot trial analysis in presence of 65.8 mm rainfall
Arion subfuscus [20] = assay: Molluscicidal activity against Arion subfuscus in Chinese cabbage at 5 g/m2 after 7 to 14 days by miniplot trial analysis in presence of 65.8 mm rainfall
Arion subfuscus [21] = assay: Molluscicidal activity against Arion subfuscus in Chinese cabbage at 5 g/m2 after 7 to 42 days by miniplot trial analysis in presence of 17 mm rainfall
Arion subfuscus [22] = assay: Molluscicidal activity against Arion subfuscus in Chinese cabbage at 5 g/m2 after 21 to 28 days by miniplot trial analysis in presence of 65.8 mm rainfall

Q: Which results are given for `CC1OC(C)OC(C)OC(C)O1` (stereo not drawn)?
A: Activity (Deroceras reticulatum [1]): Active; Activity (Deroceras reticulatum [2]): Active; Activity (Deroceras reticulatum [3]): Active; Activity (Deroceras panormitanum): inactive; Activity (Arion subfuscus [4]): Active; Activity (Arion subfuscus [5]): inactive; Activity (Deroceras reticulatum [6]): inactive; Activity (Deroceras reticulatum [7]): Active; Activity (Deroceras reticulatum [8]): Active; Activity (Arion subfuscus [9]): Active; Activity (Arion subfuscus [10]): Active; Activity (Deroceras reticulatum [11]): Active; Activity (Arion subfuscus [12]): Active; Activity (Arion subfuscus [13]): Active; Activity (Arion subfuscus [14]): Active; Activity (Deroceras reticulatum [15]): Active; Activity (Arion subfuscus [16]): Active; Activity (Arion subfuscus [17]): inactive

Q: With IRON PHOSPHATE as the compound, how does the Activity (Deroceras reticulatum [18]) read?
A: Active

Q: And the Activity (Deroceras reticulatum [19])?
A: Active

Q: What about the Activity (Arion subfuscus [20]) of the same compound?
A: Active

Q: What about the Activity (Arion subfuscus [21]) of the same compound?
A: Active

Q: What about the Activity (Arion subfuscus [22]) of the same compound?
A: inactive

Reference: ChEMBL document CHEMBL3044863, “Optimization of biological (Phasmarhabditis hermaphrodita) and chemical (iron phosphate and metaldehyde) slug control” (Crop Prot, 2009)
